From BindingDB's records for doi:10.1016/j.bmcl.2008.10.124 (Schering-Plough Research Institute, 2009)

Target: Genome polyprotein (Hepatitis C virus genotype 1a (isolate H77), UniProt P27958)
Assay: Continuous Spectrophotometric Assay
Details: pH 6.5; 30 °C
Experimental: Proteolytic cleavage of the ester linkage between the Nva (L-norvaline) and the chromophore (PAP) was monitored for change in absorbance at 370 nm. Initial velocities were determined using linear regression and kinetic constants were obtained by fitting the data to the Michaelis-Menten equation.

Genome polyprotein, sequence (P27958 1027-1657 limits assumed): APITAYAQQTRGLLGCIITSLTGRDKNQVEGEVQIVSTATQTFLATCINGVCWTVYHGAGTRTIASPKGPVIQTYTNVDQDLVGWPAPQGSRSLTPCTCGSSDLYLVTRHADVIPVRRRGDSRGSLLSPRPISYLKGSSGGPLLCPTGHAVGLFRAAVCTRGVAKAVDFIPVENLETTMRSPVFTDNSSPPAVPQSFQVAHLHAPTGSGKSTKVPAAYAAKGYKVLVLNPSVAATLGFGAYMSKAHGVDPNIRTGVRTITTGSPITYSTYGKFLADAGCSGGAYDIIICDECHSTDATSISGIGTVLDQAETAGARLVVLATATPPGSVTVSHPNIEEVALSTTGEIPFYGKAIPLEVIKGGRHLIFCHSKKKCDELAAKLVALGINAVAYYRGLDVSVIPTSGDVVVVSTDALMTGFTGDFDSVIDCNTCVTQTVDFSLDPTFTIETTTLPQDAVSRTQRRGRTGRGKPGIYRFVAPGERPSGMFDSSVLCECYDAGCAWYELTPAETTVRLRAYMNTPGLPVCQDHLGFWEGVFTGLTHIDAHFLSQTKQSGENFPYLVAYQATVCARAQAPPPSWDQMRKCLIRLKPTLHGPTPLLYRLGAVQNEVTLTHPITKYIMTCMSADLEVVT

Row | Compound | Ki [nM]
1 | CC[C@H](NC(=O)[C@@H]1[C@@H]2[C@H](CN1C(=O)[C@@H](NC(=O)N[C@H](CN(C)S(C)(=O)=O)C(C)(C)C)C(C)(C)C)C2(C)C)B1O[C@@H]2CC3CC(C3(C)C)[C@]2(C)O1 (stereo partly drawn) [(1R,2S,5S)-3-[(2S)-2-({[(2S)-1-[methane(methyl)sulfonamido]-3,3-dimethylbutan-2-yl]carbamoyl}amino)-3,3-dimethylbutanoyl]-6,6-dimethyl-N-[(1R)-1-[(2S,6R)-2,9,9-trimethyl-3,5-dioxa-4-boratricyclo[6.1.1.0^{2,6}]decan-4-yl]propyl]-3-azabicyclo[3.1.0]hexane-2-carboxamide] | 34
2 | CC[C@H](NC(=O)[C@@H]1[C@@H]2[C@H](CN1C(=O)[C@@H](NC(=O)NC(C)(C)C)C(C)(C)C)C2(C)C)B1O[C@@H]2CC3CC(C3(C)C)[C@]2(C)O1 (stereo partly drawn) [(1R,2S,5S)-3-[(2S)-2-[(tert-butylcarbamoyl)amino]-3,3-dimethylbutanoyl]-6,6-dimethyl-N-[(1R)-1-[(2S,6R)-2,9,9-trimethyl-3,5-dioxa-4-boratricyclo[6.1.1.0^{2,6}]decan-4-yl]propyl]-3-azabicyclo[3.1.0]hexane-2-carboxamide] | 500
3 | CN(C[C@@H](NC(=O)N[C@H](C(=O)N1C[C@H]2[C@@H]([C@H]1C(=O)N[C@@H](CC1CCC1)B1O[C@@H]3CC4CC(C4(C)C)[C@]3(C)O1)C2(C)C)C(C)(C)C)C(C)(C)C)S(C)(=O)=O (stereo partly drawn) [(1R,2S,5S)-N-[(1R)-2-cyclobutyl-1-[(2S,6R)-2,9,9-trimethyl-3,5-dioxa-4-boratricyclo[6.1.1.0^{2,6}]decan-4-yl]ethyl]-3-[(2S)-2-({[(2S)-1-[methane(methyl)sulfonamido]-3,3-dimethylbutan-2-yl]carbamoyl}amino)-3,3-dimethylbutanoyl]-6,6-dimethyl-3-azabicyclo[3.1.0]hexane-2-carboxamide] | 0.5
4 | CC[C@H](NC(=O)C1[C@@H]2[C@H](CN1C(=O)[C@@H](NC(=O)NC(C)(C)C)C(C)(C)C)C2(C)C)B1O[C@@H]2CC3CC(C3(C)C)[C@]2(C)O1 (stereo partly drawn) [(1R,5S)-3-[(2S)-2-[(tert-butylcarbamoyl)amino]-3,3-dimethylbutanoyl]-6,6-dimethyl-N-[(1R)-1-[(2S,6R)-2,9,9-trimethyl-3,5-dioxa-4-boratricyclo[6.1.1.0^{2,6}]decan-4-yl]propyl]-3-azabicyclo[3.1.0]hexane-2-carboxamide] | 380
5 | CC(C)(C)NC(=O)N[C@H](C(=O)N1C[C@H]2[C@@H](C1C(=O)N[C@@H](CC1CCC1)B(O)O)C2(C)C)C(C)(C)C (stereo partly drawn) [(1R,5S)-3-[(2S)-2-[(tert-butylcarbamoyl)amino]-3,3-dimethylbutanoyl]-N-[(1R)-2-cyclobutyl-1-(dihydroxyboranyl)ethyl]-6,6-dimethyl-3-azabicyclo[3.1.0]hexane-2-carboxamide] | 10
6 | CC(C)(C)NC(=O)N[C@H](C(=O)N1C[C@H]2[C@@H](C1C(=O)N[C@@H](CC1CCC1)B1O[C@@H]3CC4CC(C4(C)C)[C@]3(C)O1)C2(C)C)C(C)(C)C (stereo partly drawn) [(1R,5S)-3-[(2S)-2-[(tert-butylcarbamoyl)amino]-3,3-dimethylbutanoyl]-N-[(1R)-2-cyclobutyl-1-[(2S,6R)-2,9,9-trimethyl-3,5-dioxa-4-boratricyclo[6.1.1.0^{2,6}]decan-4-yl]ethyl]-6,6-dimethyl-3-azabicyclo[3.1.0]hexane-2-carboxamide] | 10
